From patent US7829560B2, “1,4-disubstituted naphthalenes as inhibitors of P38 MAP kinase” (Arqule, Inc., priority 2004, dated 2010) come the findings set out here.

One series has as its target T1, p38α (Homo sapiens, UniProt Q16539).
T1 construct: p38 MAP Kinases are recombinant human full-length proteins with an amino-terminal GST fusion; GST (N); purchased Upstate Biotechnology Inc; host or cells: E. coli
The experiment in a line: p38 MAP Kinase assay: inhibition of ATF2 phosphorylation, ELISA. The format is biochemical. The following applies: for inhibition at 10 µM: substrate ATF2, read-out: [ENZ] P38 ALPHA, PCT INH, ELISA (10 uM;ATF2) (Percent); for IC50: ATF2 phosphorylation, read-out: [ENZ] P38 ALPHA, IC50, ELISA. The gist of the method:
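GST-tagged full-length human p38 MAP kinase with GST-ATF2 (aa 19–96; 1.25 μM) and 40 μM ATP in HEPES pH 7.5 buffer, without (Method I) or with (Method II) 1% human serum albumin. Compound pre-incubated 15 min at room temperature; reaction 30 min at 37 °C; ATF2 Thr69 phosphorylation measured by ELISA (A450).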

Series [1] concerns TNFα release from THP-1 cells. The experiment in a line: Inhibition of TNFα release from LPS-stimulated THP-1 cells, ELISA. The format is cell-based. Conditions: Homo sapiens, THP-1, THP-1 cells, read-out: [CELL] THP-1, IC50, TNF ALPHA, ELISA. The essentials:
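Human THP-1 monocytes, 10^6 cells/ml in RPMI with 10% FBS, no serum or 1% HSA, preincubated 30 min at 37 °C with compound (≤0.5% DMSO), then stimulated with 10 μg/ml LPS for 18 h. Supernatant TNFα measured by ELISA; IC50 from non-linear dose-response regression.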

The structures appear in SMILES notation.

T1 sequence (Q16539 whole entry, the tested form may be a part): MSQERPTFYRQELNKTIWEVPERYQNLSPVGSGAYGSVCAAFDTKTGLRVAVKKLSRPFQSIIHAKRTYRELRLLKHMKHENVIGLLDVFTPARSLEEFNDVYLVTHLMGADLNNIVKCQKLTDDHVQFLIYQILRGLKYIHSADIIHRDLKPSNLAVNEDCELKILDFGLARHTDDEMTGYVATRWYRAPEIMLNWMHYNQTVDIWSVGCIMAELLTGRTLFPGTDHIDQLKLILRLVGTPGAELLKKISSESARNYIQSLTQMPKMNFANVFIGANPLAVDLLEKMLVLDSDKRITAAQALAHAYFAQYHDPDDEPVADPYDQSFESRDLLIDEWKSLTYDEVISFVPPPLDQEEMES

The IC50 is the concentration at which inhibition is half-maximal. The melting point is the temperature of the solid-liquid transition. In turn, `O=C(Nc1ccc(OCCCN2CCOCC2)c2ccccc12)c1cc(F)cc(N2CCCCC2)c1` [Compound B161, 3-Fluoro-N-[4-(3-morpholin-4-yl-propoxy)-naphthalen-1-yl]-5-piperidin-1-yl-benzamide] gave a melting point of 70 to 72 °C. For the same molecule, on p38α, the inhibition at 10 µM came to 84% and the IC50 stood at 1100 nM. For the same molecule, in series [1], the IC50 was above 10000 nM.
As to `N#Cc1ccc(C(=O)Nc2ccc(OCCN3CCOCC3)c3ccccc23)cc1` [Compound B36, 4-Cyano-N-[4-(2-morpholin-4-ylethoxy)-1-naphthyl]benzamide], the melting point lay within 213 to 214 °C. Further, the IC50 at p38α amounted to 5090 nM. The IC50 in series [1] is 6620 nM.
Taken in the same sequence, the figures for `O=C(Nc1ccc(OCCCN2CCNCC2)c2ccccc12)c1cc(F)cc(N2CCCCC2)c1` [Compound B183, 3-Fluoro-N-[4-(3-piperazin-1-yl-propoxy)-naphthalen-1-yl]-5-piperidin-1-yl-benzamide] were 70 to 72 °C, 1140 nM and above 10000 nM.
On to `C#CCN(C)c1nccc(Oc2ccc(NC(=O)c3cc(F)cc(N4CCOCC4)c3)c3ccccc23)n1` [Compound B352, 3-Fluoro-N-[4-({2-[methyl(prop-2-yn-1-yl)amino]pyrimidin-4-yl}oxy)-1-naphthyl]-5-morpholin-4-ylbenzamide], for which the melting point was in the range of 97 to 98 °C. On p38α, the concentration for half-maximal inhibition (IC50) was 32.5 nM. Moreover, the IC50 in series [1] was found to be 518 nM.
Molecule `CN(Cc1ccco1)c1nccc(Oc2ccc(NC(=O)c3cc(F)cc(N4CCCCC4)c3)c3ccccc23)n1` [Compound B418, 3-Fluoro-N-[4-({2-[(2-furylmethyl)(methyl)amino]pyrimidin-4-yl}oxy)-1-naphthyl]-5-piperidin-1-ylbenzamide] showed a melting point of 155 to 156 °C. Besides, the half-maximal inhibitory concentration (IC50) at p38α was 102 nM. The IC50 in series [1] worked out at 538 nM.
In the case of `O=C(Nc1ccc(Oc2ccnc(NCCO)n2)c2ccccc12)c1cc(F)cc(N2CCOCC2)c1` [Compound B252, 3-Fluoro-N-[4-({2-[(2-hydroxyethyl)amino]pyrimidin-4-yl}oxy)-1-naphthyl]-5-morpholin-4-ylbenzamide], the melting point was 127 to 129 °C. Further, the half-maximal inhibitory concentration (IC50) on p38α is 31.9 nM. Besides, the concentration for half-maximal inhibition (IC50) in series [1] came to 30.8 nM.
The matching figures for `CC(C)CN(C)c1cc(F)cc(C(=O)Nc2ccc(OCCN3CCOCC3)c3ccccc23)c1` [Compound B210, 3-Fluoro-5-[isobutyl(methyl)amino]-N-[4-(2-morpholin-4-ylethoxy)-1-naphthyl]benzamide]: 126 to 128 °C, 1300 nM and above 10000 nM.
Taken in the same sequence, the figures for `O=C(Nc1ccc(Oc2ccnc(NC3CC3)n2)c2ccccc12)c1cc(F)cc(N2CCCCC2)c1` [Compound B382, N-(4-{[2-(Cyclopropylamino)pyrimidin-4-yl]oxy}-1-naphthyl)-3-fluoro-5-piperidin-1-ylbenzamide] were 157 to 158 °C, 6.9 nM and 185 nM.
In turn, `O=C(Nc1ccc(Oc2ccnc(NCCN3CCCC3)n2)c2ccccc12)c1cc(F)cc(N2CCCCC2)c1` [Compound B389, 3-Fluoro-5-piperidin-1-yl-N-[4-({2-[(2-pyrrolidin-1-ylethyl)amino]pyrimidin-4-yl}oxy)-1-naphthyl]benzamide] came in with a melting point of 92 to 94 °C. The IC50 at p38α was 2.1 nM. In series [1], the IC50 was 89 nM.
The matching figures for `O=C(Nc1ccc(Oc2ccnc(N3CCC(O)C3)n2)c2ccccc12)c1cc(F)cc(N2CCOCC2)c1` (centres unmarked) [Compound B339, 3-Fluoro-N-(4-{[2-(3-hydroxypyrrolidin-1-yl)pyrimidin-4-yl]oxy}-1-naphthyl)-5-morpholin-4-ylbenzamide]: 137 to 139 °C, 39.1 nM and 347 nM.
The matching figures for `O=C(Nc1ccc(OCCCc2cccnc2)c2ccccc12)c1cc(F)cc(N2CCOCC2)c1` [Compound B222, 3-Fluoro-5-morpholin-4-yl-N-[4-(3-pyridin-3-ylpropoxy)-1-naphthyl]benzamide]: 64 to 66 °C, 820 nM and 9380 nM.
As for `CC(C)(C)OC(=O)N1CCN(c2nccc(Oc3ccc(NC(=O)c4cc(F)cc(N5CCCCC5)c4)c4ccccc34)n2)CC1` [Compound B397, tert-Butyl-4-[4-({4-[(3-fluoro-5-piperidin-1-ylbenzoyl)amino]-1-naphthyl}oxy)pyrimidin-2-yl]piperazine-1-carboxylate], the melting point lay in the range of 175 to 177 °C. In addition, at p38α, the 50% inhibitory concentration (IC50) was 109 nM. In series [1], the half-inhibitory concentration (IC50) was above 1000 nM.
Taken in the same sequence, the figures for `O=C(Nc1ccc(Oc2ccnc(NCC3CCCO3)n2)c2ccccc12)c1cc(F)cc(N2CCOCC2)c1` (centres unmarked) [Compound B327, 3-Fluoro-5-morpholin-4-yl-N-[4-({2-[(tetrahydrofuran-2-ylmethyl)amino]pyrimidin-4-yl}oxy)-1-naphthyl]benzamide] were 103 to 105 °C, 2.1 nM and 24.8 nM.
Consider `CCN(C)c1cc(F)cc(C(=O)Nc2ccc(OCCN3CCOCC3)c3ccccc23)c1` [Compound B207, 3-[Ethyl(methyl)amino]-5-fluoro-N-[4-(2-morpholin-4-ylethoxy)-1-naphthyl]benzamide], for which the melting point was 126 to 128 °C. Also, the IC50 on p38α amounted to 1120 nM. Besides, in series [1], the IC50 was above 10000 nM.
The matching figures for `CS(=O)(=O)c1nccc(Oc2ccc(NC(=O)c3cc(F)cc(N4CCOCC4)c3)c3ccccc23)n1` [Compound B268, 3-Fluoro-N-(4-{[2-(methylsulfonyl)pyrimidin-4-yl]oxy}-1-naphthyl)-5-morpholin-4-ylbenzamide]: 173 to 175 °C, 519 nM and 1370 nM.
The matching figures for `O=C(Nc1ccc(Oc2ccnc(NCC3CC3)n2)c2ccccc12)c1cc(F)cc(N2CCOCC2)c1` [Compound B336, N-[4-({2-[(Cyclopropylmethyl)amino]pyrimidin-4-yl}oxy)-1-naphthyl]-3-fluoro-5-morpholin-4-ylbenzamide]: 116 to 117 °C, 2.5 nM and 5.8 nM.
Taken in the same sequence, the figures for `COCCN(C)c1nccc(Oc2ccc(NC(=O)c3cc(F)cc(N4CCOCC4)c3)c3ccccc23)n1` [Compound B370, 3-Fluoro-N-[4-({2-[(2-methoxyethyl)(methyl)amino]pyrimidin-4-yl}oxy)-1-naphthyl]-5-morpholin-4-ylbenzamide] were 96 to 98 °C, 21.1 nM and 330 nM.
For `N#CNc1nccc(Oc2ccc(NC(=O)c3cc(F)cc(N4CCCCC4)c3)c3ccccc23)n1` [Compound B380, N-(4-{[2-(Cyanoamino)pyrimidin-4-yl]oxy}-1-naphthyl)-3-fluoro-5-piperidin-1-ylbenzamide], the melting point lay in the range of 160 to 162 °C. The half-inhibitory concentration (IC50) on p38α stood at 6.6 nM. In addition, the half-inhibitory concentration (IC50) in series [1] is above 1000 nM.
`O=C(Nc1ccc(OCCN2CCOCC2)c2ccccc12)c1cc(F)cc(N2CCCCCC2)c1` [Compound B67, 3-Azepan-1-yl-5-fluoro-N-[4-(2-morpholin-4-ylethoxy)-1-naphthyl]benzamide] returned a melting point of 142 to 144 °C. At p38α, the inhibition at 10 µM turned out to be 85% and the IC50 was found to be 620 nM. In series [1], the IC50 came out at 9080 nM.
`CSc1nccc(Oc2ccc(NC(=O)c3cc(F)cc(N4CCCCC4)c3)c3ccccc23)n1` [Compound B311, 3-Fluoro-N-(4-{[2-(methylthio)pyrimidin-4-yl]oxy}-1-naphthyl)-5-piperidin-1-ylbenzamide] registered a melting point of 170 to 172 °C. In addition, the half-maximal inhibitory concentration (IC50) at p38α was 56 nM. For the same molecule, the concentration for half-maximal inhibition (IC50) in series [1] came out at 179 nM.
Taken in the same sequence, the figures for `O=C(Nc1ccc(Oc2ccnc(NC3CCC3)n2)c2ccccc12)c1cc(F)cc(N2CCOCC2)c1` [Compound B331, N-(4-{[2-(Cyclobutylamino)pyrimidin-4-yl]oxy}-1-naphthyl)-3-fluoro-5-morpholin-4-ylbenzamide] were 110 to 112 °C, 3.7 nM and 237 nM.
`CN1CCN(c2nccc(Oc3ccc(NC(=O)c4cc(F)cc(N5CCOCC5)c4)c4ccccc34)n2)CC1` [Compound B328, 3-Fluoro-N-(4-{[2-(4-methylpiperazin-1-yl)pyrimidin-4-yl]oxy}-1-naphthyl)-5-morpholin-4-ylbenzamide] gave a melting point of 195 to 197 °C. The IC50 on p38α came out at 4.4 nM. The IC50 in series [1] stood at 149 nM.
`CCn1c(COc2ccc(NC(=O)c3cc(F)cc(N4CCOCC4)c3)c3ccccc23)n[nH]c1=O` [Compound B255, N-[4-(4-Ethyl-5-oxo-4,5-dihydro-1H-[1,2,4]triazol-3-ylmethoxy)-naphthalen-1-yl]-3-fluoro-5-morpholin-4-yl-benzamide] came in with a melting point of 260 °C. Further, the IC50 on p38α is 578 nM. Besides, the IC50 in series [1] came to 1940 nM.
For the molecule `O=C(Nc1ccc(OCCN2CCOCC2)c2ccccc12)c1cccc(-c2cccnc2)c1` [Compound B58, N-[4-(2-Morpholin-4-yl-ethoxy)-naphthalen-1-yl]-3-pyridin-3-yl-benzamide], the melting point lay in the range of 77 to 78 °C. Further, the IC50 at p38α turned out to be 8810 nM. In addition, the IC50 in series [1] is above 10000 nM.
